Measured values published in PubChem BioAssay (NCI).
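1) Cells in 96-well plates. 2) Compound, 48 h, 5 concentrations. 3) Linear interpolation between surrounding doses. 4) Unreached endpoint = highest concentration. The concentration for 50% growth inhibition is given as GI50. The concentration for full growth arrest is given as TGI.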

How the values were obtained:
Assay in all cases: NCI tumour cell line growth inhibition, 48 h
PC-3 prostate = test system: PC-3 prostate
EKVX NSCLC = test system: EKVX NSCLC
BT-549 breast = test system: BT-549 breast
MALME-3M melanoma = test system: MALME-3M melanoma
HCT-116 colon = test system: HCT-116 colon
SF-295 CNS = test system: SF-295 CNS
TK-10 renal = test system: TK-10 renal
M14 melanoma = test system: M14 melanoma

SMILES | TGI (PC-3 prostate) | TGI (EKVX NSCLC) | TGI (BT-549 breast) | TGI (MALME-3M melanoma) | TGI (HCT-116 colon) | TGI (SF-295 CNS) | TGI (TK-10 renal) | TGI (M14 melanoma) | GI50 (PC-3 prostate) | GI50 (EKVX NSCLC) | GI50 (BT-549 breast) | GI50 (MALME-3M melanoma) | GI50 (HCT-116 colon) | GI50 (SF-295 CNS) | GI50 (TK-10 renal) | GI50 (M14 melanoma)
Cn1c(=S)c2[nH]c(SCCN3C(=O)c4ccccc4C3=O)nc2n(C)c1=O | > 100 µM | > 100 µM | > 100 µM | > 100 µM | > 100 µM | > 100 µM | > 100 µM | > 100 µM | – | – | – | – | – | – | – | –
Nc1nc(=O)n([C@@H]2CS[C@H](CO)O2)cc1F | > 100 µM | > 100 µM | > 100 µM | > 100 µM | > 100 µM | > 100 µM | > 100 µM | > 100 µM | > 100 µM | > 100 µM | > 100 µM | > 100 µM | > 100 µM | > 100 µM | > 100 µM | > 100 µM
COc1cc(-n2ccnc2)cc(OC)c1OC | > 100 µM | > 100 µM | > 100 µM | > 100 µM | > 100 µM | 63.1 µM | > 100 µM | – | 50 µM | 84.4 µM | > 100 µM | 35.1 µM | 31.9 µM | 20.9 µM | 42.5 µM | –
COc1ccc(/C=C\c2cc(OC)c(OC)c(OC)c2)cc1OCC(=O)Nc1ccc2nc(C)sc2c1 | 8.01 µM | > 100 µM | 8.53 µM | 8.29 µM | > 100 µM | 6.85 µM | > 100 µM | 10.4 µM | 2.8 µM | 4.05 µM | 3.05 µM | 2.84 µM | 3.57 µM | 2.45 µM | 4.21 µM | 3.38 µM
Cc1ccc(-c2nc([P+](c3ccccc3)(c3ccccc3)c3ccccc3)c(Nc3ccccc3)o2)cc1 | 1.83 µM | 2.18 µM | 3.02 µM | 0.801 µM | 1.22 µM | 2.41 µM | 2.78 µM | 2.08 µM | 0.433 µM | 0.815 µM | 1.53 µM | 0.25 µM | 0.265 µM | 1.14 µM | 1.27 µM | 0.655 µM
CCOC(=O)/C=C/C(=O)[C@H](CC(C)C)NC(=O)[C@H](Cc1ccccc1)NC(=O)OCc1ccccc1 | 16.4 µM | 29 µM | 27.6 µM | 15.3 µM | 9.43 µM | 29.8 µM | 3.81 µM | 13.2 µM | 4.39 µM | 15.6 µM | 14.4 µM | 3.89 µM | 2.87 µM | 16.2 µM | 1.87 µM | 3.54 µM
Cc1ccc(NCCN(C)C)c2c(=O)c3ccccc3sc12 | 5.13 µM | 9.93 µM | 15.5 µM | 3.28 µM | 2.8 µM | 4.46 µM | 5.45 µM | 3.05 µM | 1.97 µM | 2.96 µM | 3.89 µM | 1.66 µM | 1.47 µM | 1.88 µM | 2.34 µM | 1.59 µM
COc1cc2c(=O)n(CCN(C)C)c3c4cc5c(cc4ccc3c2cc1OC)OCO5 | 6.16 µM | 4.7 µM | 5.27 µM | 0.967 µM | 2.01 µM | 3.15 µM | – | 0.723 µM | 0.338 µM | 0.694 µM | 0.413 µM | 0.241 µM | 0.195 µM | 0.155 µM | – | 0.166 µM
COc1ccc(N(/C=C/C(=O)C(F)(F)F)CC(=O)c2ccc(Cl)cc2)cc1 | 32.8 µM | 63.3 µM | 65.3 µM | 37.6 µM | 26.6 µM | 31.7 µM | 40.8 µM | – | 14.2 µM | 25.3 µM | 20.6 µM | 16 µM | 7.62 µM | 13.6 µM | 17.7 µM | –
COc1ccc(Nc2nc3cc(N)cc(N)c3nc2-c2ccccc2)cc1OC | 36 µM | 71.1 µM | 81.6 µM | 35.7 µM | 29.7 µM | 45.3 µM | 58.5 µM | 69.8 µM | 14 µM | 25.6 µM | 25.9 µM | 15.7 µM | 14.9 µM | 16.9 µM | 20.9 µM | 21 µM
C#COc1cccc(Nc2ncnc3cc(NC(=O)[C@H](C)Cl)ccc23)c1 | > 62.5 µM | > 62.5 µM | > 62.5 µM | > 62.5 µM | > 62.5 µM | 61.1 µM | > 62.5 µM | > 62.5 µM | 3.23 µM | 17.4 µM | 3.22 µM | 4.07 µM | 2.23 µM | 2.28 µM | 23.6 µM | 2.27 µM
CN(C)c1ccc(C(c2ccc(Cl)cc2)c2ccc(N(C)C)cc2)cc1 | > 100 µM | > 100 µM | > 100 µM | > 100 µM | > 100 µM | > 100 µM | > 100 µM | > 100 µM | – | – | – | – | – | – | – | –
